# In US8129345B2, “MUC1-IκB kinase complexes and their activities” (Dana-Farber Cancer Institute, Inc., priority 2006, dated 2012):
# Tested on: ZR-75-1/MUC1siRNA cells
# Test: Expression of Flag-tagged MUC1-CD in ZR-75-1/MUC1siRNA cells
# Format: cell-based, Human
# Details: compared to empty vector
# Experimental: (§1) FIG. 9A is a pair of photographs of immunoblots. ZR-75-1/MUC1siRNA cells were transfected with the empty pIRES-puro2 vector or a pIRES-puro2-Flag-MUC1-CD vector. Lysates were prepared from the cells and subjected to SDS-PAGE and immunoblotting using antibodies specific to MUC1-C or β-actin as a control. The molecular weights of proteins (as indicated on the left of the photographs) are expressed as kilodaltons (kDa).
# as §1, with “FIG. 9B” for “FIG. 9A”, “to immunoprecipitation” for “to SDS-PAGE and immunoblotting”, “to IKKγ. Immunoprecipitates were immunoblotted using antibodies specific for IKKβ” for “to MUC1-C”, “or IKKγ” for “or β-actin”, “as indicated.” for “as a control.”
# as §1, with “9C” for “9A”, “immunoprecipitation” for “SDS-PAGE and immunoblotting”, “for IKKβ. Immunoprecipitates were immunoblotted using antibodies specific for phospho-IKKβ-ser-181” for “to MUC1-C”, “IKKβ” for “β-actin”, “indicated.” for “a control.”
# FIG. 9D is a pair of photographs of immunoblots. Cytosolic fractions were prepared from ZR-75-1/MUC1siRNA cells transfected with the empty pIRES-puro2 vector or a pIRES-puro2-Flag-MUC1-CD vector. Lysates were immunoblotted with anti-phospho-IκBα and anti-IκBα antibodies where indicated. The molecular weights of proteins (as indicated on the left of the photographs) are expressed as kilodaltons (kDa).
# FIG. 9E is a photograph of an immunoblot. Nuclear fractions were prepared from ZR-75-1/MUC1siRNA cells transfected with the empty pIRES-puro2 vector or a pIRES-puro2-Flag-MUC1-CD vector and subjected to immunoblotting with antibodies specific for NF-κB or lamin B as a control. As a further control for the quality of nuclear fractionation, immunoblotting for IκBα was performed using antibodies specific for IκBα. The molecular weights of proteins (as indicated on the left of the photographs) are expressed as kilodaltons (kDa).
# Subcellular fractionation. Nuclear and cytosolic fractions were prepared as described in Kharbanda et al. (1996) Cancer Res. 56:3617-3621.
# Immunoprecipitation and immunoblotting. Lysates from subconfluent cells were prepared as described in Ren et al. (2004) Cancer Cell 5:163-175. […] The immune complexes were detected with horseradish peroxidase-conjugated secondary (anti-IgG) antibodies (Amersham Biosciences) and enhanced chemiluminescence (ECL; Amersham Biosciences). […]
substance,measurement,setting,value
"MUC1-CD: 72 amino acid cytoplasmic domain of human MUC1, SEQ ID NO:2",IKKβ-IKKγ complex formation,,increases in IKKβ-IKKγ complex formation
same,phosphorylation of IKKβ on Ser-181,,increased phosphorylation
same,phosphorylation of IκBα,cytosolic fractions,increased phosphorylation
same,targeting of NF-κB p65 to the nucleus,nuclear fractions,increased targeting of NF-κB p65 to the nucleus
